Key:
[1] = Kynurenic acid levels in serum and retina by LC-MS/MS after intravenous injection (blood retinal barrier permeability); type: in vivo, WT mice; conditions: intravenous 2.5 mg/animal, two hours after injection, relative to sodium phosphate buffer-injected control mice, *p<0.05
Experimental: (§1) Treatment mice were given kynurenic acid intravenously or intravitreally, while control mice were subjected to the same I/R injury but not given kynurenic acid. Intravenous and intravitreal administration of kynurenic acid was performed immediately after I/R injury and again 24 hours post-injury. Kynurenic acid was injected intravenously via the tail vein into WT mice at a concentration of 2.5 mg/animal (25 mg/mL stock dissolved in 0.1 N NaOH, diluted in 0.1 M sodium phosphate buffer, and adjusted to pH 7). After 2 hours, kynurenic acid levels in the serum and retina were measured. Control animals received 0.1 M sodium phosphate buffer (pH 7) alone.
To first determine whether kynurenic acid is permeable across the blood retinal barrier, kynurenic acid levels in the serum and retina of six WT mice intravenously injected with kynurenic acid (KYNA) were measured by LC=MS/MS two hours after injection.

[2] = test system: retinal ganglion cells (RGCs); experiment: Ischemia/reperfusion (I/R) injury model in mice, Brn3a-positive RGC loss in flat-mounted retinas; type: in vivo, WT (C57BL/6J) mice
Experimental: To evaluate the effects of kynurenic acid on retinal conditions characterized by RGC death, e.g., glaucoma, wild-type (WT) mice were subjected to ischemia/reperfusion (I/R) injury, which induced RGC death. I/R injury was performed by first anesthetizing 12-week-old WT (C57BL/6J) mice with an intraperitoneal injection of ketamine/xylazine confirmed by the toe-pinch test. The mice were then placed on a heating pad throughout the procedure to maintain their body temperature. The right eye of each animal was cannulated into the anterior chamber with a 33-gauge needle connected to an elevated saline reservoir. The height of the reservoir was adjusted to achieve an intraocular pressure of 120 mmHg. After 60 min of this procedure, the needle was removed.
as §1
Kynurenic acid was injected intravitreally into separate WT mice at a concentration of either 5 or 10 μg/animal (5 mg/mL stock of kynurenic acid was dissolved in 0.1 N NaOH and diluted in 0.1 M sodium phosphate buffer adjusted to pH 7). Control animals were intravitreally injected with buffer alone. Intravitreal injection was performed using a 33-gauge needle attached to a Hamilton syringe (Hamilton Bonaduz AG, Bonaduz, Switzerland). The eye lids were carefully parted, and the 33-gauge needle was inserted at a 45° angle into the vitreous, just behind the limbus. One or two microliters of solution was injected in 1 μL increments with a 30 second gap between each injection. After injection, the needle was slowly withdrawn, and the injected area was treated with a topical antibiotic. Mice were anesthetized with a cocktail containing ketamine and xylazine prior to the intravitreal injections.
All mice were euthanized and retinas dissected 14 days after I/R injury, flat-mounted and immunostained for Brn3a (brain-specific homeobox/POU domain protein 3A), which is a marker for RGCs.

O=C(O)c1cc(=O)c2ccccc2[nH]1 [kynurenic acid]
kynurenic acid levels in retina [1]: increased significantly | kynurenic acid levels in serum [1]: increased significantly | level of RGC loss, central retina ([2]; intravenous 2.5 mg/animal immediately after I/R injury and again 24 hours post-injury, Brn3a-positive RGCs per mm2, 14 days after I/R, I/R control 36.3%): 11.2% | level of RGC loss, peripheral retina ([2]; intravenous 2.5 mg/animal immediately after I/R injury and again 24 hours post-injury, Brn3a-positive RGCs per mm2, 14 days after I/R, I/R control 50%): 29.4% | level of RGC loss, central retina ([2]; intravitreal 5 μg immediately after I/R and 24 hours post-injury, 14 days after I/R, I/R control 66.1%): 32.4% | level of RGC loss, peripheral retina ([2]; intravitreal 5 μg immediately after I/R and 24 hours post-injury, 14 days after I/R, I/R control 70.9%): 46.1% | level of RGC loss, central retina ([2]; intravitreal 10 μg immediately after I/R and 24 hours post-injury, 14 days after I/R, I/R control 66.1%): 18.5% | level of RGC loss, peripheral retina ([2]; intravitreal 10 μg immediately after I/R and 24 hours post-injury, 14 days after I/R, I/R control 70.9%): 26.8%

From patent publication US11911376B2, “Methods for preventing and treating retinal damage” (THE REGENTS OF THE UNIVERSITY OF COLORADO, priority 2020, dated 2024)
